According to patent US12544371B2, “Methods and compositions for treating acute lung injury and acute respiratory distress syndrome” (CalciMedica, Inc., priority 2020, dated 2026):
Like-named read-outs stand apart in the source and are kept apart here.

What was measured:
[1] = Long-term extension study of SAD and MAD subjects; type: in vivo, human
Text: Subjects in Groups 4 and 5 of the SAD study and Groups 1 and 2 of the MAD study who received Compound 1 were followed for 1 year in a long-term extension study to assess for adverse events and serious adverse events. In addition, PK levels were drawn in all 4 groups on Day 270 to further characterize the terminal phase and the prolonged period of residual drug level.

[2] = Phase 2 trial in severe COVID-19 pneumonia, interim results; type: in vivo, human; settings: for Difference (Compound 1 − Standard Care), estimated mean of ordinal scale: MMRM; for Difference (Compound 1 − Standard Care), ordinal scale, sensitivity analysis: three patients with PaO2/FiO2<100 removed
Experimental: A phase 2 clinical trial is performed to evaluate Compound 1 in patients with severe COVID-19 pneumonia. The study will investigate the use of Compound 1 in patients with severe COVID-19 pneumonia who are at risk for progression to acute respiratory distress syndrome (ARDS).
Compound 1 Dose and Route of Administration: 2.0 mg/kg of an injectable emulsion of Compound 1 will be administered at 0 hour and 1.6 mg/kg will be administered at both 24 hours and 48 hours from the Start of the First Infusion of Study Drug (SFISD).
Study Design: In this randomized controlled open-label stage study, 60 patients who meet all of the inclusion criteria and none of the exclusion criteria will be randomized 2:1 to receive Compound 1 or continue with the local standard of care. The dose of Compound 1 will be 2.0 mg/kg of Compound 1 administered at 0 hour, and 1.6 mg/kg at 24 hours and 1.6 mg/kg at 48 hours. The SFISD should occur within 8 hours of the patient or LAR providing informed consent. The dosing will be based on actual body weight obtained at the time of hospitalization or screening for the study. A study physician or appropriately trained delegate will perform assessments at screening, immediately prior to the SFISD, and immediately prior to each subsequent infusion. At 72 hours after the SFISD, the patient will be assessed every 24 hours (±4 hours) until Day 30 after the SFISD, or until discharge if earlier. Patients who are discharged before Day 25 after the SFISD will be contacted at Day 30 (±5 days) and Day 60 (+5 days) for a safety and mortality assessment. Patients randomized to receive local standard of care will not have blood samples drawn for PK assessments.
Interim results for the phase 2 trial have been obtained, as follows. 18 patients with severe COVID-19 pneumonia have been enrolled, in which 12 treated have been treated with an injectable emulsion of Compound 1, and 6 have received the standard of care. 3 sites are currently enrolling patients. 11 of the enrolled patients are at site 1 (8 treated and 3 SOC), 3 are at site 2 (1 treated and 2 SOC), and 4 are at site 3 (3 treated and 1 SOC). The subjects with severe COVID-19 were those that necessitated low-flow oxygen treatment.
Compound 1 in Severe COVID-19 Pneumonia: Time to Hospital Discharge. One subject in standard care group was discharged with low flow treatment and is considered as censored at discharge instead of out of hospital. 3 patients who died were censored at Day 30. […] Similar improvements would be expected upon treatment with other intracellular Calcium signaling inhibitors or CRAC inhibitors.
Compound 1 in Severe COVID-19 Pneumonia: Ordinal Scale Analysis. The data in are based on an MMRM model and missing at random assumption. The ordinal scale was as follows: 1. Death 2. Hospitalized, on invasive mechanical ventilation or ECMO 3. Hospitalized, on non-invasive ventilation or high flow oxygen devices 4. Hospitalized, requiring low flow supplemental oxygen 5. Hospitalized, not requiring supplemental oxygen—requiring ongoing medical care (coronavirus (e.g. COVID-19) related or otherwise) 6. Hospitalized, not requiring supplemental oxygen—no longer requires ongoing medical care (other than per protocol study drug administration) 7. Not hospitalized. […] Similar improvements would be expected upon treatment with other intracellular Calcium signaling inhibitors or CRAC inhibitors.

[3] = Safety pharmacology studies in rats; type: in vivo
Text: Compound 1 is a non-limiting example of a composition described herein that inhibits calcium release-activated calcium (CRAC) channels).

[4] = system: IL-2 release by human CD4+ T cells; experiment: IL-2 release by human CD4+ T cells, isolated cell assay; type: cell-based; settings: SEM (n), read-out: Compound 1 IC50, IL-2 release by human CD4+ T cells
Text: (§1) CRAC channels may play a proximal role in a calcium-calcineurin pathway leading to cytokine release in immune cells.

[5] = system: human peripheral blood lymphocytes; experiment: In vitro micronucleus assay; type: cell-based
[6] = Mouse TLCS-induced and FAEE-induced pancreatitis models; type: in vivo
Text: Potential efficacy of Compound 1 in treating acute lung injury was established in three diverse in vivo models of AP that cause both pancreatic damage and lung inflammation (TLCS-induced, FAEE-induced, and caerulein-induced acute pancreatitis models).

[7] = cited from earlier work
[8] = system: IL-1β released from human PBMCs; experiment: Cytokine released from human PBMCs: IL-1β; type: cell-based
Text: as §1

**Q.** For `Cc1cccc(F)c1C(=O)Nc1cnc(-c2cc3c(cc2Cl)OC(F)(F)O3)cn1` [Compound 1, N-(5-(6-Chloro-2,2-difluorobenzo[d][1,3]dioxol-5-yl)pyrazin-2-yl)-2-fluoro-6-methylbenzamide], which “number of mild AEs in the extension study” value ([1]; 365 days) is on record?
**A.** Its value is 1.

**Q.** What about the “serious adverse events and adverse events rated moderate or severe, long-term follow-up” value ([1]; healthy subjects followed for 365 days) of the same compound?
**A.** The value was “safe and no serious adverse events and no adverse events rated moderate or severe in intensity and no SAEs or AEs rated moderate or severe in intensity”.

**Q.** And the “Difference (Compound 1 − Standard Care), estimated mean of ordinal scale” value (“Difference … of ordinal scale” for short) ([2]; Study Day 0)?
**A.** The value was 0.00.

**Q.** And the “Difference (Compound 1 − Standard Care), ordinal scale, sensitivity analysis” value (“Difference … sensitivity analysis” below) ([2]; Study Day 0)?
**A.** Its value is 0.00.

**Q.** What about the “Difference … of ordinal scale” value ([2]; Study Day 1) of the same compound?
**A.** Its value is 0.75.

**Q.** And the “Difference … sensitivity analysis” value ([2]; Study Day 1)?
**A.** The value was 0.70.

**Q.** And the “Difference … of ordinal scale” value ([2]; Study Day 2)?
**A.** Its value is 0.83.

**Q.** What about the “Difference … sensitivity analysis” value ([2]; Study Day 2) of the same compound?
**A.** Its value is 0.80.

**Q.** And the “Difference … of ordinal scale” value ([2]; Study Day 3)?
**A.** Its value is 1.17.

**Q.** And the “Difference … sensitivity analysis” value ([2]; Study Day 3)?
**A.** Its value is 1.10.

**Q.** And the “Difference … of ordinal scale” value ([2]; Study Day 4)?
**A.** The value was 1.73.

**Q.** And the “Difference … sensitivity analysis” value ([2]; Study Day 4)?
**A.** The value was 1.76.

**Q.** And the “Difference … of ordinal scale” value ([2]; Study Day 5)?
**A.** The value was 1.87.

**Q.** And the “Difference … sensitivity analysis” value ([2]; Study Day 5)?
**A.** Its value is 2.02.

**Q.** And the “Difference … of ordinal scale” value ([2]; Study Day 6)?
**A.** The value was 2.04.

**Q.** What about the “Difference … sensitivity analysis” value ([2]; Study Day 6) of the same compound?
**A.** Its value is 2.23.

**Q.** And the “Difference … of ordinal scale” value ([2]; Study Day 7)?
**A.** Its value is 1.30.

**Q.** And the “Difference … sensitivity analysis” value ([2]; Study Day 7)?
**A.** The value was 1.79.

**Q.** And the “Difference … of ordinal scale” value ([2]; Study Day 8)?
**A.** Its value is 1.39.

**Q.** What about the “Difference … sensitivity analysis” value ([2]; Study Day 8) of the same compound?
**A.** Its value is 1.89.

**Q.** What about the “Difference … of ordinal scale” value ([2]; Study Day 9) of the same compound?
**A.** The value was 1.48.

**Q.** What about the “Difference … sensitivity analysis” value ([2]; Study Day 9) of the same compound?
**A.** The value was 1.90.

**Q.** What about the “Difference … of ordinal scale” value ([2]; Study Day 10) of the same compound?
**A.** The value was 1.21.

**Q.** What about the “Difference … sensitivity analysis” value ([2]; Study Day 10) of the same compound?
**A.** The value was 1.81.

**Q.** And the “Difference … of ordinal scale” value ([2]; Study Day 12)?
**A.** The value was 1.31.

**Q.** And the “Difference … sensitivity analysis” value ([2]; Study Day 12)?
**A.** The value was 1.81.

**Q.** And the “Difference … of ordinal scale” value ([2]; Study Day 14)?
**A.** Its value is 1.05.

**Q.** And the “Difference … sensitivity analysis” value ([2]; Study Day 14)?
**A.** Its value is 2.07.

**Q.** And the “Difference … sensitivity analysis” value ([2]; Study Day 16)?
**A.** The value was 1.82.

**Q.** And the “Difference … sensitivity analysis” value ([2]; Study Day 18)?
**A.** The value was 1.83.

**Q.** What about the “ordinal scale (7-point)” value ([2]; interim) of the same compound?
**A.** Its value is “improvement”.

**Q.** And the “Subjects out of hospital” value ([2]; interim, 9/12 subjects)?
**A.** The value was 9/12 (75%).

**Q.** What about the PaO2/FiO2 ([2]; interim, following administration) of the same compound?
**A.** Its PaO2/FiO2 is “increased”.

**Q.** What about the “probability of being at a hospital over time” value ([2]; interim, versus standard care) of the same compound?
**A.** Its value is “lower probability of being at a hospital over time”.

**Q.** And the “KM estimate of number of days in hospital, median” value ([2]; interim, 95% CI (4 days, na))?
**A.** Its value is 5.5 days (4 days, na).

**Q.** What about the “adverse effects on central nervous or respiratory systems” value [3] of the same compound?
**A.** Its value is “no adverse effects”.

**Q.** And the IC50 [4]?
**A.** Its IC50 is 0.004 ± 0.0005 µM.

**Q.** And the micronucleus assay result [5]?
**A.** The micronucleus assay result was “weakly positive/equivocal”.

**Q.** What about the “effect of timing of administration on minimizing pancreatic injury” value ([6]; administered early in the course of disease, later administration retains effectiveness) of the same compound?
**A.** Its value is “may be more effective”.

**Q.** And the “lung myeloperoxidase; pancreas trypsin activity, myeloperoxidase activity and histopathological indices” value ([6]; mouse TLCS-induced and FAEE-induced pancreatitis, two IP doses)?
**A.** The value was “markedly reduced”.

**Q.** What about the “cytokine levels in serum and lung” value ([7]; animal models) of the same compound?
**A.** Its value is “decreases”.

**Q.** What about the “lung inflammation in animal models” value ([7]; animal models) of the same compound?
**A.** The value was “protect against lung inflammation”.

**Q.** And the “efficacy following i.p. injection” value ([7]; mice, Wen et al. 2015)?
**A.** The value was “effective”.

**Q.** What about the “efficacy following 4-hour i.v. infusion” value ([7]; rats, Waldron et al. 2019) of the same compound?
**A.** Its value is “effective”.

**Q.** What about the IC50 ([8]; Homo sapiens, PBMC, mean of replicates, read-out: Mean IC50, IL-1β released from human PBMCs) of the same compound?
**A.** The IC50 was 0.24 µM.

**Q.** And the IC50 ([8]; Homo sapiens, PBMC, single replicates, read-out: Replicate IC50 values, IL-1β released from human PBMCs)?
**A.** The IC50 was 0.264 µM.

**Q.** And the IC50 ([8]; single replicates, read-out: Replicate IC50 values, IL-1β released from human PBMCs)?
**A.** The IC50 was 0.217 µM.
